Assay results reported in patent US20230293487A1, “ANTI-INFLAMMATORY COMPOSITION COMPRISING BENZOFURAN-BASED N-ACYLHYDRAZONE DERIVATIVES” (KOREA RESEARCH INSTITUTE OF BIOSCIENCE AND BIOTECHNOLOGY, priority 2020, published 2023).

Assays:
NF-κB [1] = assay: NF-κB luciferase reporter assay, TNF-α induced (Test Example 1); type: cell-based; details: Homo sapiens; HEK293, NF-κB luciferase vector, 10 ng/ml TNF-α, 1 uM compound; FIG. 1; read-out: NF-κB activity inhibited (reporter activity)
Procedure: The cultured human-derived HEK293 cell line was transfected with the NF-κB luciferase (reporter) vector, and treated with 10 ng/ml of TNF-α to induce activation of the NF-κB signaling pathway. In addition, during the above process, 1 uM of each of 9 kinds of compounds represented by [Chemical Formula 1] was treated to measure the inhibitory effect of the NF-κB-mediated inflammatory response regulatory pathway. Specifically, the relative expression level of NF-κB was confirmed.

[2] = system: mice (LPS-induced sepsis); assay: LPS-induced sepsis (cytokine storm-like) model (Test Example 7); type: in vivo; details: LPS intraperitoneal, drug intravenous; FIG. 11B
Procedure: Since there were no disease model animals leading to death from a cytokine storm caused by coronaviruses, particularly Sars-Cov2, the present inventors used an acute sepsis model in which an acute inflammatory response is induced to cause the cytokine storm problem and confirmed inhibition of the cytokine storm, the possibility of treating severe acute respiratory syndrome coronavirus 2 infection disease and the possibility of treating sepsis.
An experiment was performed by treating LPS on an animal model (cytokine storm-like model) of sepsis (death). Mice were intraperitoneally administered with LPS for induction of sepsis and injected intravenously with the drug (Example 4), and then blood was collected at 3, 6, and 12 hours. The survival rate was confirmed for 48 hours to observe mortality due to sepsis.

NF-κB [3] = assay: NF-κB luciferase assay, luminometer (Test Example 3); type: cell-based, human; details: HEK293, 1 uM compound, 10 ng/ml TNF-α; FIG. 3
Procedure: HEK293 cell line, a human-derived embryonic kidney cell line, was cultured, transfected with NF-κB luciferase vector, treated with 1 uM of the compound, and then treated with 10 ng/ml of TNF-α to induce the NF-κB pathway. Luciferase assay method was performed to quantitatively measure the effect on NF-κB gene expression using a luminometer.

[4] = system: mice (oxazolone-induced skin inflammation); assay: Oxazolone-induced skin inflammation in mouse ears (Test Example 4): naked eye, H&E staining, immune cell count; type: in vivo; details: compound 20 μl at 500 nM, 5 applications; for number of inflammatory immune cells in skin: counted from H&E pictures, FIG. 6; for skin condition of ears confirmed with naked eye / thickness of the entire skin and epithelium (H&E staining): oxazolone on mouse ears; for skin condition of ears confirmed with naked eye: FIG. 4; for thickness of the entire skin and epithelium (H&E staining): FIG. 5
Procedure: 3% Oxazolone (150 μl) was applied to the abdominal skin of 6-week-old mice to induce an immune response, and 0.5% diluted oxazolone (20 μl) was applied to the ears of mice a total of 5 times at intervals of one day to induce an inflammatory response. After 30 minutes of oxazolone application, Example 4 (CAP-1042) or Example 12 (CAP-1047) was applied a total of 5 times in an amount of 20 μl each at a concentration of 500 nM each.
The number of mice in each experimental group was maintained at 10 or more, and the experiment was repeated twice in total.
Specifically, after H&E staining (FIG. 5), photographs of at least 10 different parts of each sample were taken evenly under a microscope. Then, the number of inflammatory immune cells stained in dark red was directly counted from the pictures taken, and the average value was calculated.

P-p65 protein = assay: Western blotting of NF-κB canonical pathway, induced with TNF-α (Test Example 5); type: cell-based; details: TNFα induction, own compound used = Example 4 (1042), b448, FIG. 8
Description: (§1) The NF-κB signaling pathway is largely divided into canonical and non-canonical pathways. In the canonical pathway, when an inflammatory response is induced by treatment with TNF-α, the amount of P-p65 protein, which is a phosphorylated product of p65 protein, increases and migrates into the nucleus, inducing an inflammatory response. In the non-canonical pathway, when an inflammatory response is induced with a LIGHT compound that activates the non-canonical NF-κB pathway, the p100 protein is converted into p52 protein through processing and migrates into the nucleus to induce an inflammatory response. […] Specifically, in order to confirm whether the activation of NF-κB signaling pathways (canonical and non-canonical pathways) is regulated, the regulation of phosphorylated p65 and p100 proteins, which are major signal regulating molecules, was confirmed using Western blotting. In the present experiment, the compound of Example 4 (1042) was used as the compound according to the present disclosure.

p100 protein = assay: Western blotting of NF-κB non-canonical pathway, induced with LIGHT (Test Example 5); type: cell-based; details: LIGHT induction, own compound used = Example 4 (1042), b448, FIG. 8
Description: as §1

Compound | expression amount of the NF-κB gene (luciferase) (NF-κB [3]) | inhibition at 1 µM (NF-κB [1]) | also measured
Cc1ccc2oc(C(=O)N/N=C/c3c(Cl)[nH]c4ccccc34)cc2c1 [Example 1, (E)-N′-[(2-chloro-1H-indol-3-yl)methylene]-5-methylbenzofuran-2-carbohydrazide] | – | ≥ 50% | –
CCOCCn1c(Cl)c(/C=N/NC(=O)c2cc3cc(C)ccc3o2)c2ccccc21 [Example 4, (E)-N′-[(2-chloro-1-(2-ethoxyethyl)-1H-indol-3-yl]methylene}-5-methylbenzofuran-2-carbohydrazide] | significantly decreased | ≥ 50% | mortality due to sepsis (survival rate after 48 hours) [2]: significantly reduced mortality due to sepsis; number of inflammatory immune cells in skin [4]: reduced the number of immune cells induced by the inflammatory reaction to the extent very similar to that of the normal case treated with ethanol; skin condition of ears confirmed with naked eye [4]: skin conditions very similar to those of normal animals treated with ethanol; thickness of the entire skin and epithelium (H&E staining) [4]: reduced to the extent very similar to that of the normal skin treated with ethanol
CCOCCn1c(Cl)c(/C=N/NC(=O)c2cc3cc(C)ccc3o2)c2cc(OC)ccc21 [Example 8, (E)-N′-[(2-chloro-1-(2-ethoxyethyl)-5-methoxy-1H-indol-3-yl]methylene}-5-methylbenzofuran-2-carbohydrazide] | – | ≥ 50% | –
CCOCCn1c(Cl)c(/C=N/NC(=O)c2cc3cc(C)ccc3o2)c2ccc(OC)cc21 [Example 9, (E)-N′-[(2-chloro-1-(2-ethoxyethyl)-6-methoxy-1H-indol-3-yl]methylene}-5-methylbenzofuran-2-carbohydrazide] | – | ≥ 50% | –
CCOCCn1c(Cl)c(/C=N/NC(=O)c2cc3cc(C)ccc3o2)c2cc(F)ccc21 [Example 10, (E)-N′-[(2-chloro-1-(2-ethoxyethyl)-5-fluoro-1H-indol-3-yl]methylene}-5-methylbenzofuran-2-carbohydrazide] | significantly decreased | ≥ 50% | –
CCOCCn1c(Cl)c(/C=N/NC(=O)c2cc3cc(C)ccc3o2)c2cc(Cl)ccc21 [Example 11, (E)-N′-[(2,5-dichloro-1-(2-ethoxyethyl)-1H-indol-3-yl]methylene}-5-methylbenzofuran-2-carbohydrazide] | significantly decreased | ≥ 50% | –
CCOC(=O)Cn1c(C)c(/C=N/NC(=O)c2cc3cc(C)ccc3o2)c2ccccc21 [Example 21, ethyl (E)-2-(2-methyl-3-((2-(5-methylbenzofuran-2-carbonyl)hydrazinylidene)methyl)-1H-indol-1-yl)acetate] | – | – | melting point: 186 °C
CCOC(=O)Cn1c(C)c(/C=N/NC(=O)c2cc3cc(Cl)ccc3o2)c2ccccc21 [Example 22] | – | – | melting point: 214 °C
COC(=O)Cn1c(Cl)c(/C=N/NC(=O)c2cc3cc(C)ccc3o2)c2ccccc21 [Example 23, methyl (E)-2-(2-chloro-3-((2-(5-methylbenzofuran-2-carbonyl)hydrazinylidene)methyl)-1H-indol-1-yl)acetate] | – | ≥ 50% | melting point: 212 °C
NC(=O)Nc1sc(-c2ccc(F)cc2)cc1C(N)=O [TPCA1] | – | – | inhibition of canonical NF-κB pathway (P-p65) (P-p65 protein): acts on the canonical pathway; inhibition of non-canonical NF-κB pathway (p100 to p52 processing) (p100 protein): not on the non-canonical pathway
(E)-N′-[(2-chloro-1-(2-methoxyethyl)-1H-indol-3-yl]methylene}-5-methylbenzofuran-2-carbohydrazide [Example 7] | – | – | number of inflammatory immune cells in skin [4]: reduced the number of immune cells induced by the inflammatory reaction to the extent very similar to that of the normal case treated with ethanol

Continued, in another order:

expression amount of the NF-κB gene (luciferase) (NF-κB [3]) | Compound | inhibition at 1 µM (NF-κB [1]) | also measured
significantly decreased | CCOCCn1c(Cl)c(/C=N/NC(=O)c2cc3cc(C)ccc3o2)c2cc(OC(F)(F)F)ccc21 [Example 12, (E)-N′-[(2-chloro-1-(2-ethoxyethyl)-5-(trifluoromethoxy)-1H-indol-3-yl]methylene}-5-methylbenzofuran-2-carbohydrazide] | ≥ 50% | skin condition of ears confirmed with naked eye [4]: skin conditions very similar to those of normal animals treated with ethanol; thickness of the entire skin and epithelium (H&E staining) [4]: reduced to the extent very similar to that of the normal skin treated with ethanol
significantly decreased | CCOCCn1c(Cl)c(/C=N/NC(=O)c2cc3cc(C)ccc3o2)c2cc(C)ccc21 [Example 13, (E)-N′-[(2-chloro-1-(2-ethoxyethyl)-5-methyl-1H-indol-3-yl]methylene}-5-methylbenzofuran-2-carbohydrazide] | ≥ 50% | –
